Values after ≈ are worked out from the molar mass of the structure shown.
Key:
Toxoplasma gondii [1] = assay: Antiparasitic activity against Toxoplasma gondii infected in HFF cells by fluorescence based analysis; assay type: functional, organism-based
[2] = Inhibition of Toxoplasma gondii recombinant ENR in presence of NADH by absorbance based analysis
[3] = Selectivity index, ratio of IC50 for cytotoxicity against human HeLa cells to IC50 for antiparasitic activity against Toxoplasma gondii tachyzoites infected in human HeLa cells; assay type: toxicity, cell-based; settings: for selectivity ratio: read-out: Ratio IC50
Toxoplasma gondii [4] = assay: Antiparasitic activity against Toxoplasma gondii tachyzoites infected in human HeLa cells measured after 24 hrs by MTT assay; assay type: functional, organism-based
HeLa = assay: Cytotoxicity against human HeLa cells assessed as cell growth inhibition measured after 24 hrs by MTT assay; assay type: functional, cell-based
Toxoplasma gondii [5] = assay: Antiparasitic activity against Toxoplasma gondii tachyzoites; assay type: functional, organism-based; settings: Toxoplasma gondii; for IC50: read-out: IC50; for EC50: read-out: ED50 (the source's name)
Toxoplasma gondii [6] = assay: Antiparasitic activity against Toxoplasma gondii tachyzoites infected in mouse assessed as survival at 10 mg/kg relative to control; assay type: functional
Vero = assay: Cytotoxicity against African green monkey Vero cells assessed as cell growth inhibition by alamar blue assay; assay type: functional; settings: Chlorocebus sabaeus, read-out: ED50 (the source's name)
Toxoplasma gondii [7] = assay: Antiparasitic activity against Toxoplasma gondii infected in HFF cells assessed as parasitic growth inhibition incubated for 24 hrs by MTS/PMS assay; assay type: functional, organism-based
[8] = Inhibition of Toxoplasma gondii FPPS incubated for 30 mins by scintillation counting analysis
[9] = Inhibition of Toxoplasma gondii DHFR
[10] = Inhibition of Toxoplasma gondii recombinant PNP

N#Cc1ccccc1CNc1ccc(Oc2ccc(Cl)cc2O)c(Cl)c1
IC50 (Toxoplasma gondii [1]): > 10000 nM
IC50 [2]: 16 nM

SPIRAMYCIN
Ratio IC50 [3]: 0.72
IC50 (Toxoplasma gondii [4]; hela): 262000 nM
IC50 (HeLa; hela): 189000 nM

Cc1cc(-n2c(=O)[nH]c(=O)n(C)c2=O)ccc1Oc1ccc(SC(F)(F)F)cc1 [TOLTRAZURIL]
IC50 (Toxoplasma gondii [5]): 940 nM
survival at 10 mg/kg (Toxoplasma gondii [6]): 100%

N#CSCCOc1ccc(Oc2cccc(Oc3ccccc3Cl)c2)cc1
EC50 (Toxoplasma gondii [5]): 2130 nM
EC50 (Vero): > 50000 nM

CO[C@H]1/C=C/O[C@@]2(C)Oc3c(C)c(O)c4c(O)c(c(/C=N/N5CCN(C6CCCC6)CC5)c(O)c4c3C2=O)NC(=O)/C(C)=C\C=C\[C@H](C)[C@H](O)[C@@H](C)[C@@H](O)[C@@H](C)[C@H](OC(C)=O)[C@@H]1C [RIFAPENTINE]
survival at 10 mg/kg (Toxoplasma gondii [6]): 90%

CCc1nc(N)nc(N)c1-c1ccc(Cl)cc1 [PYRIMETHAMINE]
IC50 (Toxoplasma gondii [7]): 3620 nM
IC50 (Toxoplasma gondii [5]): 453 nM

CCCCCCCCCCNCC(O)(P(=O)(O)O)P(=O)(O)O
IC50 [8]: 125 nM

N#CSCCOc1ccc(Oc2ccncc2)cc1
EC50 (Toxoplasma gondii [5]): 7860 nM
EC50 (Vero): > 200000 nM

Oc1ccc(Oc2ccc(Cl)cc2O)c(Cl)c1
IC50 (Toxoplasma gondii [1]): 3100 nM
IC50 [2]: 3 nM

N#CSCCOc1ccc2ccccc2c1
EC50 (Toxoplasma gondii [5]): 3620 nM
EC50 (Vero): > 100000 nM

CCCCCCCCCNCC(P(=O)(O)O)P(=O)(O)O
IC50 [8]: 440 nM

N#CSCCOc1ccc(Oc2ccc(C(F)(F)F)cc2)cc1
EC50 (Toxoplasma gondii [5]): 1860 nM
EC50 (Vero): > 50000 nM

O=C(NNC(=S)Nc1ccc(F)cc1)c1cccs1
IC50 (Toxoplasma gondii [5]): 33.2 µg/mL

C[C@@H](Oc1cc(-c2cnn(C3CCNCC3)c2)cnc1N)c1c(Cl)ccc(F)c1Cl [CRIZOTINIB]
IC50 (Toxoplasma gondii [5]): 4000 nM

CCCCCCCCCCCNCC(P(=O)(O)O)P(=O)(O)O
IC50 [8]: 868 nM

COc1cc(NCc2ccc3nc(N)nc(N)c3c2C)cc(OC)c1OC [TRIMETREXATE]
IC50 [9]: 1.4 nM

CCCCCCCC[S+]([O-])CC(P(=O)(O)O)P(=O)(O)O (stereo unspecified)
IC50 [8]: 16 nM

O=c1[nH]cnc2c([C@@H]3N[C@H](CO)[C@@H](O)[C@H]3O)c[nH]c12 [FORODESINE]
IC50 [10]: 0.37 nM

N#CSCCOc1ccc(Oc2ccccc2)cc1
EC50 (Toxoplasma gondii [5]): 4800 nM
EC50 (Vero): 82600 nM

CCCCCCC[S+]([O-])CC(P(=O)(O)O)P(=O)(O)O (stereo unspecified)
IC50 [8]: 9 nM

CCCCCCCCCNCC(F)(P(=O)(O)O)P(=O)(O)O
IC50 [8]: 60 nM

N#CSCCOc1ccc(Oc2cccc(Oc3cccc(F)c3)c2)cc1
EC50 (Toxoplasma gondii [5]): 1630 nM
EC50 (Vero): > 50000 nM

CCCCCCCCNCC(O)(P(=O)(O)O)P(=O)(O)O
IC50 [8]: 39 nM

O=P(O)(O)C(CNCCOc1cccc(Oc2ccccc2)c1)P(=O)(O)O
EC50 (Toxoplasma gondii [5]): 2400 nM
EC50 (Vero): > 50000 nM

CCCCCCC[S+](C)CC(P(=O)(O)O)P(=O)(O)O (stereo unspecified)
IC50 [8]: 13 nM

CCCCCCCCC[S+]([O-])CC(P(=O)(O)O)P(=O)(O)O (stereo unspecified)
IC50 [8]: 56 nM

N#Cc1ccc(Oc2ccc(Cl)cc2O)c(Cl)c1
IC50 [2]: 24 nM

O=C(Nc1ccc([N+](=O)[O-])cc1Cl)c1cc(Cl)ccc1O [NICLOSAMIDE]
MIC50 (Toxoplasma gondii [5]): 0.2 µM (≈ 0.0654 µg/mL)

CCCCCCCCCCCCCCNCC(P(=O)(O)O)P(=O)(O)O
IC50 [8]: 292 nM

C[C@H]1[C@H](C)CC[C@]2(C(=O)O)CC[C@]3(C)C(=CC[C@@H]4[C@@]5(C)C/C(=C/c6cn(-c7ccccc7I)nn6)C(=O)C(C)(C)[C@H]5CC[C@]43C)[C@H]12
selectivity ratio [3]: 0.84
IC50 (Toxoplasma gondii [4]; Toxoplasma gondii, HeLa, 24 h): 274000 nM
IC50 (HeLa; Homo sapiens, HeLa, 24 h): 230000 nM

Cc1cc(-n2c(=O)[nH]c(=O)n(C)c2=O)ccc1Oc1ccc(S(=O)(=O)C(F)(F)F)cc1 [PONAZURIL]
IC50 (Toxoplasma gondii [5]): 6 nM
survival at 10 mg/kg (Toxoplasma gondii [6]): 100%

N#CC(c1ccc(Cl)cc1)c1c(Cl)cc(-n2ncc(=O)[nH]c2=O)cc1Cl (stereo unspecified) [DICLAZURIL]
IC50 (Toxoplasma gondii [5]): 6 nM
survival at 10 mg/kg (Toxoplasma gondii [6]): 100%

S=c1[nH]nc(-c2cccs2)[nH]1
IC50 [10]: 194000 nM

N#CSCCOc1ccc(Oc2ccc3ccccc3c2)cc1
EC50 (Toxoplasma gondii [5]): 2250 nM
EC50 (Vero): 105000 nM

N#CSCCOc1ccc(Oc2cccc3ccccc23)cc1
EC50 (Toxoplasma gondii [5]): 2870 nM

CCCCCCCCCCCCNCC(P(=O)(O)O)P(=O)(O)O
IC50 [8]: 93 nM

C[C@H]1[C@H](C)CC[C@]2(C(=O)OCCn3cnnc3-c3ccc(F)cc3)CC[C@]3(C)C(=CC[C@@H]4[C@@]5(C)CC[C@H](O)C(C)(C)[C@H]5CC[C@]43C)[C@H]12
selectivity ratio [3]: 1.44
IC50 (Toxoplasma gondii [4]; Toxoplasma gondii, HeLa, 24 h): 51400 nM
IC50 (HeLa; Homo sapiens, HeLa, 24 h): 88200 nM

CC(=O)O[C@H]1C[C@@]2(C)[C@@H](C[C@@H](O)[C@H]3[C@@]4(C)CC[C@@H](O)[C@@H](C)[C@@H]4CC[C@@]32C)/C1=C(\CCC=C(C)C)C(=O)O [FUSIDIC ACID]
IC50 (Toxoplasma gondii [5]): 7000 nM
survival at 10 mg/kg (Toxoplasma gondii [6]): 90%

CCCCCCCCCC[S+]([O-])CC(P(=O)(O)O)P(=O)(O)O (stereo unspecified)
IC50 [8]: > 10000 nM

CCCCCCCCNCC(F)(P(=O)(O)O)P(=O)(O)O
IC50 [8]: 35 nM

CCCc1ccc(Oc2ccc(C#N)cc2Cl)c(O)c1
IC50 (Toxoplasma gondii [1]): 6000 nM
IC50 [2]: < 20 nM

C[C@H]1[C@H](C)CC[C@]2(C(=O)O)CC[C@]3(C)C(=CC[C@@H]4[C@@]5(C)C/C(=C/c6cn(-c7ccccc7Br)nn6)C(=O)C(C)(C)[C@H]5CC[C@]43C)[C@H]12
selectivity ratio [3]: 0.8
IC50 (Toxoplasma gondii [4]; Toxoplasma gondii, HeLa, 24 h): 302000 nM
IC50 (HeLa; Homo sapiens, HeLa, 24 h): 240000 nM

C/C(=N\Nc1nc(-c2ccc(Cl)c(Cl)c2)cs1)c1ccc(Nc2nc(N)nc(N)n2)cc1
IC50 (Toxoplasma gondii [5]): 14.9 µg/mL

COc1cc(-n2cc(/C=C3/C[C@@]4(C)[C@H](CC[C@]5(C)[C@@H]4CC=C4[C@@H]6[C@@H](C)[C@H](C)CC[C@]6(C(=O)O)CC[C@]45C)C(C)(C)C3=O)nn2)cc(OC)c1OC
selectivity ratio [3]: 1.17
IC50 (Toxoplasma gondii [4]; Toxoplasma gondii, HeLa, 24 h): 301000 nM
IC50 (HeLa; Homo sapiens, HeLa, 24 h): 354000 nM

C[C@H]1[C@H](C)CC[C@]2(C(=O)O)CC[C@]3(C)C(=CC[C@@H]4[C@@]5(C)C/C(=C/c6cn(-c7ccccc7Cl)nn6)C(=O)C(C)(C)[C@H]5CC[C@]43C)[C@H]12
selectivity ratio [3]: 1.95
IC50 (Toxoplasma gondii [4]; Toxoplasma gondii, HeLa, 24 h): 240000 nM
IC50 (HeLa; Homo sapiens, HeLa, 24 h): 468000 nM

Oc1cc(Cl)ccc1Oc1ccc(Cn2ccnn2)cc1Cl
IC50 (Toxoplasma gondii [1]): 250 nM
IC50 [2]: 26 nM

CC(=O)c1cc(Oc2ccccc2)ccc1OCCSC#N
EC50 (Vero): 75700 nM

Cc1nnsc1C(=O)NNC(=S)Nc1ccc(F)cc1F
IC50 (Toxoplasma gondii [5]): 92.3 µg/mL

O=P(O)(O)C(CSCCOc1cccc(Oc2ccccc2)c1)P(=O)(O)O
EC50 (Toxoplasma gondii [5]): 670 nM
EC50 (Vero): > 100000 nM

N#CSCCOc1cccc2ccccc12
EC50 (Toxoplasma gondii [5]): 3130 nM
EC50 (Vero): > 50000 nM

CCCCCCCCCCNCC(P(=O)(O)O)P(=O)(O)O
IC50 [8]: 68 nM

CCCCc1cn(Cc2ccc(Oc3ccc(Cl)cc3O)c(Cl)c2)nn1
IC50 (Toxoplasma gondii [1]): 250 nM
IC50 [2]: 43 nM

N#CSCCOc1ccc(Oc2cccnc2)cc1
EC50 (Toxoplasma gondii [5]): 3710 nM
EC50 (Vero): 134000 nM

CCCCCCNCC(O)(P(=O)(O)O)P(=O)(O)O
IC50 [8]: 51 nM

N[C@@H]1[C@H]2CN(c3nc4c(cc3F)c(=O)c(C(=O)O)cn4-c3ccc(F)cc3F)C[C@@H]12 [TROVAFLOXACIN]
survival at 10 mg/kg (Toxoplasma gondii [6]): 90%

CCCc1ccc(Oc2ccc([N+](=O)[O-])cc2Cl)c(O)c1
IC50 (Toxoplasma gondii [1]): 6000 nM
IC50 [2]: < 20 nM

Oc1cc(Cl)ccc1Oc1ccc(CNc2ccccc2)cc1Cl
IC50 (Toxoplasma gondii [1]): > 10000 nM
IC50 [2]: 31 nM

Nc1ncnc2c1ncn2Cc1c(F)cccc1Cl [ARPRINOCID]
IC50 (Toxoplasma gondii [5]): 7000 nM
survival at 10 mg/kg (Toxoplasma gondii [6]): 100%

O=[N+]([O-])c1ccc(Oc2ccc(Cl)cc2O)c(Cl)c1
IC50 (Toxoplasma gondii [1]): 4000 nM
IC50 [2]: < 20 nM

CCCCCNCC(O)(P(=O)(O)O)P(=O)(O)O
IC50 [8]: 67 nM

Cc1nnsc1C(=O)NNC(=S)Nc1ccccc1Br
IC50 (Toxoplasma gondii [5]): 74.9 µg/mL

C[C@H]1[C@H](C)CC[C@]2(C(=O)OCCn3cnnc3-c3ccccc3)CC[C@]3(C)C(=CC[C@@H]4[C@@]5(C)CC[C@H](O)C(C)(C)[C@H]5CC[C@]43C)[C@H]12
selectivity ratio [3]: 1.15
IC50 (Toxoplasma gondii [4]; Toxoplasma gondii, HeLa, 24 h): 88000 nM
IC50 (HeLa; Homo sapiens, HeLa, 24 h): 102000 nM

CCCc1ccc(Oc2ccc(N)cc2Cl)c(O)c1
IC50 (Toxoplasma gondii [1]): 6000 nM
IC50 [2]: < 20 nM

Cc1occc1C(=O)NN=C(S)Nc1ccccc1
IC50 (Toxoplasma gondii [5]): 59 µg/mL

Oc1cc(Cl)ccc1Oc1ccc(NCc2ccccc2)cc1Cl
IC50 (Toxoplasma gondii [1]): 200 nM
IC50 [2]: 13 nM

CCCCCCCNCC(O)(P(=O)(O)O)P(=O)(O)O
IC50 [8]: > 1000 nM

N#CSCCOc1ccc(Oc2ccccn2)cc1
EC50 (Toxoplasma gondii [5]): > 10000 nM
EC50 (Vero): > 200000 nM

N#CSCCOc1ccc(Oc2cccc(C(F)(F)F)c2)cc1
EC50 (Toxoplasma gondii [5]): 1660 nM
EC50 (Vero): > 50000 nM
